How the values were obtained:
[1] = test system: P. irregulare; test: Effects of methanol on fungal growth; type: cell-based, Pythium irregulare; conditions: 20 g/L pure glycerol spiked with 2, 4, and 8 g/L methanol; filter-sterilised; spores inoculated
Excerpt: The crude glycerol used in this work contained ˜12% (w/w) methanol. […] To study the “true” effects of methanol on fungal growth and EPA production, we prepared a medium containing 20 g/L pure glycerol spiked with 2, 4, and 8 g/L methanol. The medium was then passed through a 0.2 μm filter before fungal spores were inoculated. […] The result clearly indicated the negative effects of methanol on growth and EPA production of P. irregulare.

[2] = test system: Pythium irregulare (ATCC 10951); test: Growth and EPA production of P. irregulare with glucose, pure glycerol or crude glycerol as carbon source; type: cell-based; conditions: FIG. 1A; substrate around 20 g/L

For `CO` [methanol], the “growth in methanol-containing medium” value [1] was “did not observe any growth”.
`OCC(O)CO` [Pure glycerol, glycerol] was tested, and the cell growth [2] was “supported cell growth”.

From US8541210B2, “Producing eicosapentaenoic acid (EPA) from biodiesel-derived crude glycerol” (Virginia Tech Intellectual Properties, Inc., priority 2008, dated 2013)
